Literature values in patent US11590127B2, “Gastro-resistant formulation containing posaconazole” (ALFRED E. TIEFENBACHER (GMBH & CO. KG), priority 2015, dated 2023).

## CC[C@@H]([C@H](C)O)n1ncn(-c2ccc(N3CCN(c4ccc(OC[C@@H]5CO[C@@](Cn6cncn6)(c6ccc(F)cc6F)C5)cc4)CC3)cc2)c1=O [Posaconazole]
  aqueous solubility: low aqueous solubility
Thermal degradation
  temperature above which it degrades: above 160 °C
